Test results published in article PMC11882969 (Nature Communications, 2025).
Several values for one entry are separate records, joined by “and”; a condition that tells them apart may be missing. Equal values may be shown once.

How the values were obtained:
mice [1] = assay: Rotarod test; format: in vivo, mouse; conditions: for dose showing locomotor deficits or sedation, rotarod: i.p.
mice [2] = assay: Hot plate, 52 °C; format: in vivo, mouse; conditions: for Jump / Paw lick / Paw shake / Paw withdrawal: individual animals, FigS11b; for lowest dose with significantly increased hot plate latency: i.p., 30 min after injection

Structure (SMILES)	rotarod performance (Figure6b), individual animals (mice [1]; Dose 0.2 mg/kg)	rotarod performance (Figure6b), individual animals (mice [1]; Dose 0.5 mg/kg)	dose showing locomotor deficits or sedation, rotarod (mice [1]) [mg/kg]	Jump (mice [2]; 0.2 mg/kg)	Paw lick (mice [2]; 0.2 mg/kg)	Paw shake (mice [2]; 0.2 mg/kg)	Paw withdrawal (mice [2]; 0.2 mg/kg)	hot plate response normalised to baseline (Figure4b), individual animals (mice [2]; Dose 0.05 mg/kg)	hot plate response normalised to baseline (Figure4b), individual animals (mice [2]; Dose 0.1 mg/kg)	hot plate response normalised to baseline (Figure4b), individual animals (mice [2]; Dose 0.2 mg/kg)	hot plate response normalised to baseline (Figure4b), individual animals (mice [2]; Dose 0.5 mg/kg)	lowest dose with significantly increased hot plate latency (mice [2]) [mg/kg]	other results
COC(=O)[C@@](C)(NC(=O)c1cc(C)n(-c2cccc(C(F)(F)F)c2)n1)c1cccs1 [‘1350]	300 and 226 and 231 and 240 and 274 and 298 and 237 and 211	123 and 300 and 128 and 153	0.5	8 and 0 and 34 and 14 (2×)	0	2 (2×) and 4 and 0 (2×)	16 and 22 and 18 (2×) and 12	62.7 and 108.4 and 141.6 and 81.1 and 84.7 and 79 and 84.5 and 85.4 and 86.2 and 81.8	100.2 and 152.6 and 103.1 and 113.3 and 127.2 and 80.8 and 109.9 and 151.2 and 138.2 and 159.1	191.789 and 117.988 and 110.937 and 200.407 and 123.942	244.124 and 212.316 and 122.062 and 249.608 and 217.8	0.1	rotarod performance (Figure6b), individual animals (mice [1]; Dose 0.1 mg/kg): 275 and 300; Jump (mice [2]; 0.05 mg/kg): 0 (4×) and 2; Paw lick (mice [2]; 0.05 mg/kg): 0 (3×) and 2 and 12; Paw shake (mice [2]; 0.05 mg/kg): 20 and 22 and 48 and 24 and 12; Paw withdrawal (mice [2]; 0.05 mg/kg): 28 and 42 and 47 and 50 and 14; Jump (mice [2]; 0.1 mg/kg): 0; Paw lick (mice [2]; 0.1 mg/kg): 2 and 0 (3×) and 8; Paw shake (mice [2]; 0.1 mg/kg): 16 and 18 and 6 and 22 and 4; Paw withdrawal (mice [2]; 0.1 mg/kg): 20 and 30 and 22 and 34 and 14; effect of CB2R knockout on analgesia, hot plate (mice [2]; CB2R KO mice): did not decrease the analgesic effects
Cc1cc(C(=O)NC(C)(c2ccco2)c2ccco2)nn1-c1cccc(C(F)(F)F)c1 [‘4936]	300 and 283	300 and 234 and 278 and 166 and 268 and 275 and 273	2	2 (2×) and 4 and 0 (2×)	27 and 43 and 44 and 13 and 16	12 (2×) and 25 and 5 and 6	24 (2×) and 13 and 23 and 8	102.582 and 109.155 and 97.1831 and 135.446 and 112.911	324.648 and 182.16 and 233.803 and 158.685 and 147.887 and 257.981 and 154.695 and 178.169 and 197.418 and 155.869	174.413 and 176.291 and 188.028 and 167.84 and 94.8357 and 253.991 and 380.986 and 174.648 and 215.493 and 126.291	308.685 and 139.202 and 403.052 and 315.493 and 134.742 and 404.695 and 140.141 and 141.549 and 236.62 and 416.667	0.5	rotarod performance (Figure6b), individual animals (mice [1]; Dose 1.0 mg/kg): 201 and 300 and 258 and 267 and 295 and 215 and 252 and 282 and 235; rotarod performance (Figure6b), individual animals (mice [1]; Dose 2.0 mg/kg): 298 and 90 and 300 and 163 and 260
